# According to ChEMBL document CHEMBL5050843, “Amide substituted thiazoles as protein secretion inhibitors” (2019):
# Legend:
# [1] = Inhibition of constitutively active VCAMss-Gluc secretion in human Flp-In-T-REx-293 cells at 2 uM measured by Gaussia luciferase reporter gene method relative to control; assay type: functional
# [2] = Inhibition of PD1ss-Gluc secretion in doxycyclin-induced human Flp-In-T-REx-293 cells measured by Gaussia luciferase reporter gene method; assay type: functional, cell-based
# [3] = Inhibition of TNF-alpha-FL-Gluc secretion in doxycyclin-induced human Flp-In-T-REx-293 cells measured by Gaussia luciferase reporter gene method; assay type: functional, cell-based
# [4] = Inhibition of PR1ss-Gluc secretion in doxycyclin-induced human Flp-In-T-REx-293 cells measured by Gaussia luciferase reporter gene method; assay type: functional, cell-based
# [5] = Inhibition of constitutively active VCAMss-Gluc secretion in human Flp-In-T-REx-293 cells measured by Gaussia luciferase reporter gene method; assay type: functional, cell-based
# [6] = Inhibition of constitutively active PR1ss-Gluc secretion in human Flp-In-T-REx-293 cells measured by Gaussia luciferase reporter gene method; assay type: functional, cell-based
SMILES,IC50 [2],IC50 [3],IC50 [4],IC50 [5],IC50 [6],inhibition at 2 µM [1]
CC(C)(C)c1csc(NC(=O)c2ccc(C#CCCCN3CCOCC3)s2)n1,–,–,–,–,–,45%
CC(C)(C)c1csc(NC(=O)c2ccc(-c3cccnc3)s2)n1,–,–,–,–,–,19%
CC(O)CCc1ccc(C(=O)Nc2nc(C(C)(C)C)cs2)s1 (configuration not stated),–,–,–,–,–,30%
Cc1cnccc1Cn1cc(CC(=O)Nc2nc(C(C)(C)C)cs2)c2cc(Cl)ccc21,2.68 µM,19.1 µM,> 25 µM,–,–,–
CC(C)(C)c1csc(NC(=O)Cc2cn(Cc3ccncc3)c3ccc(Cl)cc23)n1,2.76 µM,11 µM,> 25 µM,1.41 µM,> 25 µM,–
CC(C)(C)c1csc(NC(=O)c2ccc(C#CCCCO)s2)n1,–,–,–,–,–,53%
Cc1cc(C(=O)Nc2nc(C(C)(C)C)cs2)sc1-c1ccccc1,–,31 µM,–,4.5 µM,–,–
CC(C)(C)c1csc(NC(=O)Cc2cn(Cc3ccc(C#N)cc3)c3ccc(Cl)cc23)n1,4.14 µM,23.8 µM,> 25 µM,–,–,–
CC(C)(C)c1csc(NC(=O)c2ccc(C#C[Si](C)(C)C)s2)n1,–,–,–,–,–,54%
CC(C)(C)c1csc(NC(=O)c2cc3c(s2)CCCCC3)n1,–,4.3 µM,–,0.58 µM,–,–
CN(C)CC#Cc1ccc(C(=O)Nc2nc(C(C)(C)C)cs2)s1,–,–,–,–,–,76%
CC(C)(C)c1csc(NC(=O)Cc2cn(Cc3nc4ccccc4o3)c3ccc(Cl)cc23)n1,9.71 µM,> 25 µM,> 25 µM,–,–,–
O=C(Nc1nc(-c2ccc(C(F)(F)F)cc2)cs1)c1cc2c(s1)CCCC2,–,–,–,–,–,3%
C#Cc1ccc(C(=O)Nc2nc(C(C)(C)C)cs2)s1,–,–,–,–,–,66%
CC(C)(C)c1csc(NC(=O)c2cc(Br)cs2)n1,–,72 µM,–,14 µM,–,–
CC(C)(C)c1csc(NC(=O)Cc2cn(Cc3cocn3)c3ccc(Cl)cc23)n1,22 µM,> 25 µM,–,–,–,–
CC(C)(C)c1csc(NC(=O)c2ccc(C#CCN3CCOCC3)s2)n1,–,–,–,–,–,38%
CC(C)(C)c1csc(NC(=O)Cc2cn(Cc3ccc(F)cc3Cl)c3ccc(Cl)cc23)n1,1.15 µM,> 25 µM,> 25 µM,–,–,–
CC(C)OC(C)(C)c1csc(NC(=O)Cc2cn(Cc3ccccc3Cl)c3ccc(Cl)cc23)n1,0.715 µM,14.8 µM,> 25 µM,–,–,–
CC(C)(C)c1csc(NC(=O)c2ccc(C#CCO)s2)n1,–,–,–,–,–,80%
Cc1ccc(C(=O)Nc2nc(C(C)(C)C)cs2)cc1,–,–,–,–,–,9%
CC(c1ccccc1Cl)n1cc(CC(=O)Nc2nc(C(C)(C)C)cs2)c2cc(Cl)ccc21 (configuration not stated),1.55 µM,> 25 µM,> 25 µM,–,–,–
Cn1c(C(C)(C)C)cs/c1=N\C(=O)c1cc2c(s1)CCCC2,–,–,–,–,–,63%

SMILES,IC50 [2],IC50 [3],IC50 [4],IC50 [5],IC50 [6],inhibition at 2 µM [1]
O=C(Nc1nc(C2CC2)cs1)c1cc2c(s1)CCCC2,–,> 80 µM,–,11 µM,–,–
CC(C)(C)c1csc(NC(=O)N2CCCOCC2)n1,–,–,–,–,–,0%
CN(C(=O)c1cc2c(s1)CCCC2)c1nc(C(C)(C)C)cs1,–,–,–,–,–,19%
CC(C)(C)c1csc(NC(=O)Nc2nc(C(C)(C)C)cs2)n1,–,–,–,–,–,19%
CC(C)(C)c1csc(NC(=O)c2cc(Br)c(Br)s2)n1,–,26 µM,–,3.8 µM,–,–
COC(C)(C)c1csc(NC(=O)Cc2cn(Cc3ccccc3Cl)c3ccc(Cl)cc23)n1,1.04 µM,13.6 µM,> 25 µM,–,–,–
CC(C)(C)c1csc(NC(=O)c2ccc(-c3cccc([N+](=O)[O-])c3)s2)n1,–,–,–,–,–,59%
CC(C)(C)c1csc(NC(=O)c2csc3c2CCCC3)n1,–,73 µM,–,14 µM,–,–
CC(C)(C)c1csc(NC(=O)Cc2cn(Cc3ccccc3Cl)c3ccc(Cl)cc23)n1,1.15 µM,> 25 µM,> 25 µM,0.147 µM,> 25 µM,–
CC(C)(C)c1csc(NC(=O)c2ccc(C#CCCCCCCCCO)s2)n1,–,–,–,–,–,52%
CC(=O)N1CCc2sc(C(=O)Nc3nc(C(C)(C)C)cs3)cc2C1,–,> 50 µM,–,> 50 µM,–,–
CC(C)(C)c1csc(NC(=O)Cc2cn(Cc3ccon3)c3ccc(Cl)cc23)n1,10.3 µM,> 25 µM,–,–,–,–
CCCc1csc(NC(=O)c2cc3c(s2)CCCC3)n1,–,> 80 µM,–,2.6 µM,–,–
CC(C)(C)c1csc(NC(=O)c2cc3c(s2)CCC3)n1,–,18 µM,–,1 µM,–,–
CC(C)(C)OC(=O)N1CCc2sc(C(=O)Nc3nc(C(C)(C)C)cs3)cc2C1,–,> 50 µM,–,20 µM,–,–
CC(O)C#Cc1ccc(C(=O)Nc2nc(C(C)(C)C)cs2)s1 (configuration not stated),–,–,–,–,–,24%
CC(C)(C)c1csc(NC(=O)Cc2cn(CC(=O)Nc3ccccc3O)c3ccc(Cl)cc23)n1,10.4 µM,17.7 µM,19.1 µM,–,–,–
CC(C)(C)c1csc(NC(=O)c2ccc(CCCO)s2)n1,–,–,–,–,–,31%
CC(C)(C)c1csc(NC(=O)c2ccc(-c3cc(Cl)cc(Cl)c3)s2)n1,–,–,–,–,–,35%
CC(C)(C)C(=O)Nc1nc(C(C)(C)C)cs1,–,–,–,–,–,0%
CCC(C)(C)c1csc(NC(=O)Cc2cn(Cc3ccccc3)c3ccc(Cl)cc23)n1,2.2 µM,9.8 µM,> 25 µM,0.109 µM,> 25 µM,–
O=C(Nc1nc(C2CC3CCC(C3)C2)cs1)c1cc2c(s1)CCCC2 (configuration not stated),–,–,–,–,–,55%
Cc1ccc(S(=O)(=O)Nc2nc(C(C)(C)C)cs2)cc1,–,–,–,–,–,0%

# Now from value to compound, other results behind:
IC50 [2],IC50 [3],IC50 [4],IC50 [5],IC50 [6],SMILES,inhibition at 2 µM [1]
8.84 µM,> 25 µM,> 25 µM,–,–,CC(C)(C)c1csc(NC(=O)Cc2cn(Cc3ccc(C(N)=O)cc3)c3ccc(Cl)cc23)n1,–
6.18 µM,> 25 µM,> 25 µM,–,–,CC(C)(C)Cc1csc(NC(=O)Cc2cn(Cc3ccccc3Cl)c3ccc(Cl)cc23)n1,–
4.16 µM,> 25 µM,> 25 µM,–,–,C[C@H](c1ccccc1Cl)n1cc(CC(=O)Nc2nc(C(C)(C)C)cs2)c2cc(Cl)ccc21,–
10 µM,> 25 µM,> 25 µM,–,–,CC(C)(C)c1csc(NC(=O)Cc2cn(Cc3ccccc3)c3nc(Cl)ccc23)n1,–
23.3 µM,> 25 µM,> 25 µM,–,–,CC(C)(C)c1csc(NC(=O)Cc2cn(Cc3ncccn3)c3ccc(Cl)cc23)n1,–
23.5 µM,> 25 µM,> 25 µM,–,–,CC(C)(C)c1csc(NC(=O)Cc2cn(Cc3ncco3)c3ccc(Cl)cc23)n1,–
–,> 80 µM,–,23 µM,–,CC(C)(C)c1csc(NC(=O)c2ccc(Br)s2)n1,–
6.1 µM,> 25 µM,24 µM,–,–,Cc1cc(Cn2cc(CC(=O)Nc3nc(C(C)(C)C)cs3)c3cc(Cl)ccc32)ccn1,–
–,8 µM,–,2 µM,–,CC(C)(C)c1csc(NC(=O)c2ccc(Cl)s2)n1,–
8.34 µM,23.7 µM,20.7 µM,–,–,CC(C)(C)c1csc(NC(=O)Cc2cn(Cc3ccccc3)c3cc(Cl)ncc23)n1,–
–,4.31 µM,–,2.27 µM,–,CC(C)(C)c1csc(NC(=O)c2ccc(-c3ccc(Cl)cc3Cl)s2)n1,–
6.06 µM,> 25 µM,> 25 µM,–,–,CC(C(=O)Nc1nc(C(C)(C)C)cs1)c1cn(Cc2ccccc2)c2ccc(Cl)cc12 (configuration not stated),–
3.36 µM,> 25 µM,> 25 µM,–,–,CC(C)(C)c1csc(NC(=O)Cc2cn(C3CCCCC3)c3ccc(Cl)cc23)n1,–
–,> 80 µM,–,3.9 µM,–,COC(=O)c1sc(NC(=O)c2cc3c(s2)CCCC3)nc1C(C)(C)C,–
–,> 80 µM,–,2.5 µM,–,CC(C)(C)c1csc(NC(=O)c2cc3c([nH]2)CCCC3)n1,–
–,> 80 µM,–,1.8 µM,–,COc1ccc2cc(C(=O)Nc3nc(C(C)(C)C)cs3)sc2c1,–

IC50 [2],IC50 [3],IC50 [4],IC50 [5],IC50 [6],SMILES,inhibition at 2 µM [1]
4.44 µM,22.7 µM,> 25 µM,5.35 µM,> 25 µM,CC(C)(C)c1csc(NC(=O)c2cc3c(s2)CCCC3)n1,–
–,–,–,10.9 µM,> 25 µM,CC(C)(C)c1csc(NC(=O)c2ccc3c(c2)CCCC3)n1,20%
1.88 µM,> 21.3 µM,> 25 µM,–,–,Cc1c(CC(=O)Nc2nc(C(C)(C)C)cs2)c2ccccc2n1Cc1ccccc1Cl,–
–,> 80 µM,–,> 80 µM,–,CC(C)(C)c1nc(NC(=O)c2cc3c(s2)CCCC3)sc1C#N,–
–,> 80 µM,–,7.9 µM,–,CCC1CCc2sc(C(=O)Nc3nc(C(C)(C)C)cs3)cc2C1 (configuration not stated),–
–,4.7 µM,–,0.43 µM,–,CC(C)(C)c1nsc(NC(=O)c2cc3c(s2)CCCC3)n1,–
4.74 µM,> 25 µM,> 25 µM,–,–,Cc1cc(C(=O)Nc2nc(C(C)(C)C)cs2)cn1Cc1ccccc1,–
0.727 µM,> 24.2 µM,> 25 µM,–,–,CCC(C)(C)c1csc(NC(=O)Cc2cn(Cc3ccccc3Cl)c3ccc(Cl)cc23)n1,–
–,> 80 µM,–,0.4 µM,–,CC1(C)CCc2sc(NC(=O)c3cc4c(s3)CCCC4)nc21,–
6.62 µM,> 25 µM,> 25 µM,–,–,CC(C)(C)c1csc(NC(=O)Cc2cn(C3CCc4ccccc43)c3ccc(Cl)cc23)n1 (configuration not stated),–
–,4.5 µM,–,1.3 µM,–,CC(C)(C)c1csc(NC(=O)c2ccc(-c3ccccc3)s2)n1,–
6.33 µM,> 25 µM,> 25 µM,–,–,CC(C)(C)c1csc(NC(=O)Cc2cn(Cc3c(F)cccc3Cl)c3ccc(Cl)cc23)n1,–
0.875 µM,> 25 µM,> 25 µM,–,–,C[C@@H](c1ccccc1Cl)n1cc(CC(=O)Nc2nc(C(C)(C)C)cs2)c2cc(Cl)ccc21,–
8.6 µM,> 25 µM,> 25 µM,–,–,CC(C)(C)c1csc(NC(=O)Cc2cn(Cc3ccccc3)c3ccncc23)n1,–
–,> 80 µM,–,3.3 µM,–,CC(C)(C)c1csc(NC(=O)c2cc3ccc(Br)cc3s2)n1,–
12.2 µM,> 25 µM,> 25 µM,–,–,CC(C)(C)c1csc(NC(=O)Cc2cn(Cc3ccccc3)c3ncccc23)n1,–
